Laboratory results published in article PMC8881573, “Inhibition of SRP-dependent protein secretion by the bacterial alarmone (p)ppGpp” (Nature Communications, 2022).

Legend:
[1] = biological target: T1, Ffh-NG/FtsY-NG complex (Escherichia coli, UniProt P0AGD7+P10121, DEL297-453); experiment: Analytical size-exclusion chromatography of GMPPNP-dependent Ffh/FtsY complex formation; assay type: biochemical, E. coli; details: 0.25, 0.5 or 1 mM GMPPNP
T1 construct: purified NG domains of (Ec)FtsY and (Ec)Ffh were diluted; His6 (C); made in house; host or cells: E. coli BL21 (DE3)
Experimental: For the analytical SEC, purified NG domains of (Ec)FtsY and (Ec)Ffh were diluted in a buffer containing 20 mM HEPES (pH 7.5), 200 mM NaCl, 20 mM MgCl2 and 20 mM KCl to a final concentration of 100 µM (Fig. 3g) and 50 µM (Fig. 3h, i) each. Indicated amounts of nucleotides were added simultaneously, and the solution was incubated for 30 min at room temperature. 100 µL were then injected at 4 °C on to a pre-equilibrated S200 300/10 GL analytical size-exclusion column (GE Healthcare, München, Germany) on an Äkta system (UNICORN 7.6; Cytiva). Data has been plotted using GraphPad Prism (GraphPad Prism Corp. San Diego).

[2] = biological target: T2, (Ec)Ffh-NG (Escherichia coli, UniProt P0AGD7); experiment: Microscale thermophoresis (MST) ligand binding; set-up: species or system E. coli; details: NG domain labeled with NT 647, 21 °C
T2 construct: purified NG domains of (Ec)Ffh, (Ec)FtsY and (Bs)Ffh; His6 (C); made in house; host or cells: E. coli BL21 (DE3)
Experimental: (§1) Ligand binding assays with purified NG domains of (Ec)Ffh, (Ec)FtsY and (Bs)Ffh proteins were carried out by microscale thermophoresis (MST)[80]. All experiments were performed on a Monolith NT.115 (NanoTemper Technologies GmbH, Munich, Germany; software: NanoTemper Control Version 2.0.2.29) at 21 °C (red LED power was set to 50–100% and infrared laser power to 75%). After labeling of primary amines within (Ec)Ffh, (Ec)FtsY, and (Bs)Ffh (50 µM each) with the dye NT 647 (according to the manufacturers protocol), the proteins were re-buffered in SEC buffer containing 20 mM HEPES-Na, 20 mM KCl, 20 mM MgCl2, 200 mM NaCl (final pH 7.5), 10 mg ml^−1 BSA and 0.007% Tween. Two-hundred nanomolar of (Ec)Ffh, (Ec)FtsY, and (Bs)Ffh were titrated with GDP, GTP, ppGpp, and pppGpp starting from a concentration ranging between 0.75 and 3 mM, respectively. At least six independent MST experiments per ligand and protein were recorded at 680 nm and analyzed using NanoTemper Analysis version 1.5.37 and 1.2.009, and Origin8G software suits.

[3] = biological target: T3, (Ec)FtsY-NG (Escherichia coli, UniProt P10121); experiment: Microscale thermophoresis (MST) ligand binding; set-up: species or system E. coli; details: NG domain labeled with NT 647, 21 °C; read-out: (Ec)FtsY KD MST
T3 construct: purified NG domains of (Ec)Ffh, (Ec)FtsY and (Bs)Ffh; His6 (C); made in house; host or cells: E. coli BL21 (DE3)
Experimental: as §1

[4] = biological target: GTPase RbgA; set-up: method as in PMID 30366986; details: read-out: inhibitor constant Ki; cited from earlier work
[5] = (p)ppGpp concentrations exceeding those of GMPPNP by two-fold
[6] = at equal (p)ppGpp/GMPPNP ratios

T3 sequence (P10121 197-497): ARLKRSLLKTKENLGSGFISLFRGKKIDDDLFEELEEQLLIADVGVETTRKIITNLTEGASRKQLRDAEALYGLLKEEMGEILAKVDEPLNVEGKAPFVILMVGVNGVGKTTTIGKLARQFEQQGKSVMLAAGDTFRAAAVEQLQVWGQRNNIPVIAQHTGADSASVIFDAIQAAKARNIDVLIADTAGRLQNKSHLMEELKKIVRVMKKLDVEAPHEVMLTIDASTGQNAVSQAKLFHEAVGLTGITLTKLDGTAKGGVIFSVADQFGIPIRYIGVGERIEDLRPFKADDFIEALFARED
T1 sequence (P0AGD7 1-296, stated change not applied): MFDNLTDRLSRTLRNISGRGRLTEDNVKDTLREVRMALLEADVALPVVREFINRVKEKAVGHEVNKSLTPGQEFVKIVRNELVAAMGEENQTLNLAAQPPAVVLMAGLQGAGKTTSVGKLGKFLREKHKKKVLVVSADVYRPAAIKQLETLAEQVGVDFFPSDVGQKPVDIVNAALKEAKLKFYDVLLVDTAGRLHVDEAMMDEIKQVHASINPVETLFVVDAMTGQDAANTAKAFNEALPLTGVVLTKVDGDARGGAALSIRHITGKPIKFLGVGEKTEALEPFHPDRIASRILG
T1 sequence (P10121 197-497, stated change not applied): as the sequence (P10121 197-497) above
T2 sequence (P0AGD7 1-296): as the sequence (P0AGD7 1-296, stated change not applied) above

SMILES | Ffh/FtsY complex formation [1, 5] | Ffh/FtsY complex formation [1, 6] | Kd [2] [µM] | Kd [3] [µM] | Ki [4] [µM]
Nc1nc2c(ncn2[C@@H]2O[C@H](COP(=O)(O)OP(=O)(O)O)[C@@H](OP(=O)(O)OP(=O)(O)O)[C@H]2O)c(=O)[nH]1 [ppGpp] | roughly abolished | half-inhibited | 13.5 | 30 | 300
Nc1nc2c(ncn2[C@@H]2O[C@H](COP(=O)(O)OP(=O)(O)OP(=O)(O)O)[C@@H](OP(=O)(O)OP(=O)(O)O)[C@H]2O)c(=O)[nH]1 [pppGpp] | roughly abolished | half-inhibited | 68.3 | 66.6 | 500
